These results are taken from publication PMC7007424 (Neurotherapeutics, 2019).

In data set [1] the test system is PTZ-induced clonic seizures in mice. Particulars: i.p., cited from earlier work.
Data set [2] concerns 6-Hz (32 mA) psychomotor seizures. Conditions: mice, i.p., cited from earlier work; for anticonvulsant activity in 6 Hz, 32 mA: known AED profile, Fig. 1.
Data set [3] deals with mice. In words: passive avoidance task. Type of data set: in vivo. Conditions: i.p. 30 min before, AS-1 81.12 mg/kg, VPA […], combination AS-1 27.6 + VPA 59.9 mg/kg.
Data set [4] concerns mice. In words: chimney test. Type of data set: in vivo. Conditions: i.p. 30 min before, AS-1 81.12 mg/kg, VPA […], combination AS-1 27.6 + VPA 59.9 mg/kg. From the text: [31]’s chimney test. The pretreatment time for AS-1 and VPA in the chimney test was identical to that of the PTZ test. This experimental procedure has been described in detail in our earlier studies.
Data set [5] has as its system PTZ-induced kindling in mice. In words: PTZ-induced kindling. Type of data set: in vivo. Conditions: 33 daily i.p. injections; AS-1 15, 30 and 60 mg/kg, VPA 150 mg/kg; PTZ 40 mg/kg i.p. every 48 h, 17 injections; vs PTZ-kindled control. The method, then: All suspensions and solutions were prepared freshly and administered in a constant volume of 0.1 ml per 10 g of body weight. In all experiments, AS-1 and VPA were injected i.p. Control animals received vehicles only. […] After each PTZ injection, mice were placed separately into transparent cages for 30 min for behavioral observation to assign an appropriate seizure score. […] After each PTZ injection, the mean seizure severity score for each experimental group was calculated. Non-kindled (control) mice were treated as kindled animals, except that they were injected with normal saline instead of PTZ. Experimental grouping for PTZ kindling was as follows: […]

For data set [6], the system named is PTZ-kindled mice. In words: forced swim test in PTZ-kindled mice. The data set is classed as in vivo. Particulars: repeated i.p. injection, AS-1 15–60 mg/kg, VPA 150 mg/kg, vs kindled control. The method, then: Twenty-four hours after the last PTZ injection (on day 34), mice were subjected to the locomotor activity test, the elevated plus maze test, and the forced swim test. Forty-eight hours after the last PTZ injection (on day 35) the i.v. PTZ seizure threshold test was performed. The forced swim test was used to assess the depressive-like behavior in kindled animals. The procedure was performed as described in detail elsewhere.

Data set [7] has as its system mice. In words: grip strength test. Type of data set: in vivo. Conditions: i.p. 30 min before, AS-1 81.12 mg/kg, VPA […], combination AS-1 27.6 + VPA 59.9 mg/kg. From the text: The time before the commencement of the grip strength test (after drug administration) was identical to that of the PTZ test. This experimental procedure has been described in detail in our earlier studies.

Data set [8] relates to PTZ-kindled mice. Put plainly: elevated plus maze test in PTZ-kindled mice. The data set is classed as in vivo. Conditions: repeated i.p. injection, AS-1 15–60 mg/kg, VPA 150 mg/kg. The method, then:
Twenty-four hours after the last PTZ injection (on day 34), mice were subjected to the locomotor activity test, the elevated plus maze test, and the forced swim test. Forty-eight hours after the last PTZ injection (on day 35) the i.v. PTZ seizure threshold test was performed. The elevated plus maze test was used to assess the anxiety-like behavior in kindled animal, as described in detail in our previous study.

For data set [9], the system named is PTZ-induced clonic seizures in mice. Put plainly: s.c. PTZ-induced clonic seizure test, with isobolographic analysis. Type of data set: in vivo.
Method: Following PTZ administration, mice were placed separately in transparent Plexiglas cages (25 cm × 15 cm × 10 cm) and observed for 30 min for the occurrence of clonic seizures. Clonic seizure activity was defined as the clonus of the whole body lasting for over 3 s, with an accompanying loss of righting reflex.
To determine the ED50 mix value, both drugs in the mixture (at proportionally raised doses) were administered to the mice and a dose–response relationship for the mixture was denoted using Litchfield and Wilcoxon [25]’s log-probit method. • Statistical comparison of the experimentally derived ED50 mix values with their corresponding theoretically additive ED50 add values was undertaken using the unpaired Student’s t test, according to Tallarida [30]. • Graphical illustration of the examined interactions as isobolograms (i.e., simple forms of interaction visualizations).
Data set [10] deals with PTZ-kindled mice. Put plainly: locomotor activity test in PTZ-kindled mice. Type of data set: in vivo. Conditions: repeated i.p. injection, AS-1 15–60 mg/kg, VPA 150 mg/kg, day 34. The method, then:
Twenty-four hours after the last PTZ injection (on day 34), mice were subjected to the locomotor activity test, the elevated plus maze test, and the forced swim test. Forty-eight hours after the last PTZ injection (on day 35) the i.v. PTZ seizure threshold test was performed. Spontaneous locomotor activity of mice was monitored using the […] system supported by SedaCom32 software (Panlab/Harvard Apparatus, Barcelona, Spain) according to the method described in detail elsewhere.

Data set [11] concerns PTZ-kindled mice. Set-up: method as in PMID 30247871. Conditions: former study, ref [13]; cited from earlier work.
A further data set deals with 6-Hz seizures. Set-up: method as in PMID 28449218. Particulars: 6-Hz test; ref [17]; cited from earlier work.
Another data set relates to hepatoma HepG2 cells. Put plainly: hepatotoxicity, HepG2 cell viability. Type of data set: cell-based.
For data set [12], the system named is maximal electroshock (MES) seizure. Conditions: mice, i.p.; known AED profile, Fig. 1; cited from earlier work.

Turning to `CCC1(C)CC(=O)NC1=O` (centres unmarked) [ETX, ethosuximide], the “anticonvulsant activity in scPTZ” value in [1] (known AED profile, Fig. 1) is given as “active”.

Turning to `CCCC(CCC)C(=O)O` [VPA, valproic acid, reference compound], the “ED50 (6 Hz, 32 mA)” value in data set [2] (ref [10], [12]) is 130.65 mg/kg. For the same compound, the “Retention time, median (25th; 75th percentiles)” value in the data set on mice [3] is reported as 180 (180; 180) s. In the data set on mice [4], the “Motor coordination, percentage of animals showing motor coordination impairment” value is given as 12.5%. Besides, in data set [5], the “effect on kindling development (mean seizure severity score)” value is reported as “suppressed kindling progression”. In addition, the “ED50 (s.c. PTZ)” value in data set [1] (earlier study, ref [10], [12]) is given as 239.45 mg/kg. Further, the “effect on total immobility duration” value in the data set on PTZ-kindled mice [6] is reported as “significantly decreased the immobility time”. In addition, the “Muscular strength, mean grip strength ± SEM” value with mice [7] is 104.7 ± 2.8 g. In addition, the “effect on percentage of open arm entries and percentage of time spent in open arms” value in the data set with PTZ-kindled mice [8] was “did not produce any significant changes”. Moreover, the “protection against PTZ-induced clonic seizures” value is listed as 12.5% in data set [9] (125 mg/kg i.p.), 37.5% in [9] (150 mg/kg i.p.) and 62.5% in data set [9] (200 mg/kg i.p.). Also, the “effect on spontaneous locomotor activity” value with PTZ-kindled mice [10] is listed as “did not affect locomotor activity”.

For `CC(C(=O)N1CCN(c2cccc(C(F)(F)F)c2)CC1)N1C(=O)CCC1=O` (centres unmarked) [KA-11, 1-(1-oxo-1-(4-(3-(trifluoromethyl)phenyl)piperazin-1-yl)propan-2-yl)pyrrolidine-2,5-dione], in the data set on PTZ-kindled mice [11], the “effect on depressive-like behavior caused by PTZ-induced kindling” value is reported as “prevented the depressive-like behavior”.

On to `CC[C@@H](C(N)=O)N1CCCC1=O` [LEV, levetiracetam], for which, in data set [2], the “anticonvulsant activity in 6 Hz, 32 mA” value was “active”. Further, the “ED50 at 44 mA versus ED50 at 32 mA stimulus intensity” value in the data set with 6-Hz seizures is on record as “at least 50 times”.

In the case of `N#CC(C#N)=NNc1cccc(Cl)c1` [CCCP, carbonyl cyanide 3-chlorophenylhydrazone, reference compound], the “HepG2 cells' viability” value in the data set on hepatoma HepG2 cells (10 μM) was ~ 40 % of control.

Turning to `COc1cccc2c1C(=O)c1c(O)c3c(c(O)c1C2=O)C[C@@](O)(C(=O)CO)C[C@@H]3O[C@H]1C[C@H](N)[C@H](O)[C@H](C)O1` [DX, doxorubicin, reference compound], the “HepG2 cells' viability” value with hepatoma HepG2 cells (1 μM) is given as ~ 40 % of control.

Turning to `COC[C@@H](NC(C)=O)C(=O)NCc1ccccc1` [LCS, lacosamide, reference compound], the “anticonvulsant activity in 6 Hz, 32 mA” value in data set [2] was “active”. Moreover, the “anticonvulsant activity in MES” value in [12] is listed as “active”.
